The subject of this assay is human fibroblasts. The experiment in a line: Wound healing model (scratch wound) in human fibroblasts. The assay is classed as cell-based. The settings on record: 14 hours after wounding; initial wound area defined as 100%; added to cell culture medium. From the text:
Preliminary cell studies with human fibroblasts have been performed to test potential health benefits of LCMUFA in skin.
The main objective of the study was to show whether addition of a LCMUFA concentrate (Cetoleic acid concentrate) or DHA to cell culture medium would: • 1) Influence the capacity of the cells to regenerate after damage (so called “wound healing model”), • 2) Influence the production of melanin (skin pigment), • 3) Influence the expression of genes involved in inflammation after induced oxidative stress.
Wound healing model: Treatment arms included addition of DHA or the LCMUFA contrate to the cell culture medium, respectively. The control was cells only added culture medium, no fatty acids. The effect on closing of wound 14 hours after initiation of a wound was measured.
The initial wound area was defined as 100%, then the wound opening was measured after 14 hours to a percentage of the original wound. The reduction was approximately 60% for LC-MUFA and 50% for DHA, respectively.

The structures appear in SMILES notation.

Regarding `CC/C=C\C/C=C\C/C=C\C/C=C\C/C=C\C/C=C\CCC(=O)O` [DHA, Docosahexaenoic acid], the “reduction of scratch wound area” value is reported as ~50%.

The values are drawn from patent US20260069563A1, “CETOLEIC ACID COMPOSITION” (Epax Norway AS, priority 2022, published 2026).
